Consider 79 compounds from the Kinase Knowledgebase extract (Sharma et al. 2016).

SMILES strings stand for the structures.

The target in the test is MAPK14 (human) (UniProt Q16539). Kind of test: Inhibition of MAPK14 Kinase Activity.
Chain of MAPK14 (human) (Q16539 whole entry, looked up): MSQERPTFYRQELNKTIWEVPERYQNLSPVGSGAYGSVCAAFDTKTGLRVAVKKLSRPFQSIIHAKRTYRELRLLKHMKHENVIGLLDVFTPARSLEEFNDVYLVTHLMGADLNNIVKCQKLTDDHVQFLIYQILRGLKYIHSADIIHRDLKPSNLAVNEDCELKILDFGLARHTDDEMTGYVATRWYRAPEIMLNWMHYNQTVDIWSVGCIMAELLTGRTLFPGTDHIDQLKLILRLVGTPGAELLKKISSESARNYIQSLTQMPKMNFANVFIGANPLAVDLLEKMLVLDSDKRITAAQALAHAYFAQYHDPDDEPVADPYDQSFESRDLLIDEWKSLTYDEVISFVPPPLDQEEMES
Consider `CC(C)NC(=O)c1csc(-c2c(-c3ccc(F)cc3)noc2C2CCNCC2)n1`, for which the IC50 was not above 1000 nM.
To `CC(=O)Nc1cccc(C(=O)N2CCN(Cc3nc(-c4ccc(F)cc4)c(-c4nc(C(=O)NC(C)C)cs4)o3)CC2)c1` belongs not above 1000 nM; to `COc1ccncc1NC(=O)c1csc(-c2sc(C)nc2-c2ccc(F)cc2)n1`, not above 1000 nM; to `Cc1nc(-c2ccc(F)cc2)c(-c2nc(C(=O)N[C@H](CO)Cc3ccccc3)cs2)s1`, not above 1000 nM.
Next, `Cc1nc(-c2ccc(F)cc2)c(-c2nc(C(=O)NCCCN(C)c3ccccc3)cs2)s1`: not above 1000 nM; `CC(C)NC(=O)c1csc(-c2c(-c3ccc(F)cc3)noc2CNCCN2CCCC2)n1`: not above 1000 nM; `Cc1nc(-c2ccc(F)cc2)c(-c2nc(C(=O)Nc3ccccc3-c3ccccc3)cs2)s1`: not above 1000 nM.
Consider `CC(C)NC(=O)c1csc(-c2oc(CNC(=O)C(C)O)nc2-c2ccc(F)cc2)n1` (centres undefined), for which the IC50 is not above 1000 nM.
To `CC(C)NC(=O)c1csc(-c2oc(CNC(=O)c3ccc(C#N)cc3)nc2-c2ccc(F)cc2)n1` belongs not above 1000 nM; to `COc1ccc(O)c(C(=O)N2CCN(Cc3nc(-c4ccc(F)cc4)c(-c4nc(C(=O)NC(C)C)cs4)o3)CC2)c1`, not above 1000 nM.
With `CC(C)NC(=O)c1csc(-c2oc(CNC(=O)c3ccc(Oc4cccc(O)c4)cc3)nc2-c2ccc(F)cc2)n1`, the IC50 is not above 1000 nM.
As for `C#CCNC(=O)c1csc(-c2[nH]c(CN3CCNCC3)nc2-c2ccc(F)cc2)n1`, the IC50 is not above 1000 nM.
To `Cc1onc(-c2ccc(F)cc2Cl)c1-c1ccn(C(=O)NC(C)C)n1` belongs not above 1000 nM; to `CC(C)NC(=O)c1csc(-c2oc(CNC(=O)C=Cc3ccccc3F)nc2-c2ccc(F)cc2)n1`, not above 1000 nM; to `COc1ccc(CNCc2nc(-c3ccc(F)cc3)c(-c3nc(C(=O)NC(C)C)cs3)o2)cc1O`, not above 1000 nM.
`Cc1nc(-c2ccc(F)cc2)c(-c2nc(C(=O)NCc3ccc(F)c(F)c3)cs2)s1` returned an IC50 not above 1000 nM.
Turning to `Cc1nc(-c2ccc(F)cc2)c(-c2nc(C(=O)NCCc3cccc(Cl)c3)cs2)s1`, the IC50 was not above 1000 nM.
To `COc1ccc([N+](=O)[O-])c(C(=O)NCc2nc(-c3ccc(F)cc3)c(-c3nc(C(=O)NC(C)C)cs3)o2)c1` belongs not above 1000 nM.
To `CC(C)NC(=O)c1csc(-c2oc(CN3CCN(C(=O)c4cccc5ccccc45)CC3)nc2-c2ccc(F)cc2)n1` belongs not above 1000 nM; to `Cc1nc(-c2ccc(F)cc2)c(-c2nc(C(=O)NCC3(O)CCCCC3)cs2)s1`, not above 1000 nM; to `CC(=O)NC(Cc1ccc(O)cc1)C(=O)NCc1nc(-c2ccc(F)cc2)c(-c2nc(C(=O)NC(C)C)cs2)o1` (centres undefined), not above 1000 nM.
Next, `CCN(Cc1onc(-c2ccc(F)cc2)c1-c1nc(C(=O)NC(C)C)cs1)C(Cc1ccccc1)c1ccco1` (centres undefined): not above 1000 nM; `CC(C)NC(=O)c1csc(-c2oc(CN3CCNCC3)nc2-c2ccc(F)cc2)n1`: not above 1000 nM; `Cc1nc(-c2ccc(F)cc2)c(-c2nc(C(=O)NCc3cccnc3)cs2)s1`: not above 1000 nM.
`CC(C)NC(=O)c1csc(-c2c(-c3ccc(F)cc3)n[nH]c2C2CCN(C(=O)c3ccc(C=O)cc3)CC2)n1` had a concentration for half-maximal inhibition (IC50) not above 1000 nM.
Next, `CC(C)NC(=O)c1csc(-c2oc(CNCc3ccccc3OC(F)(F)F)nc2-c2ccc(F)cc2)n1`: not above 1000 nM.
Next, `Cc1cccc(CCC(=O)N2CCN(Cc3nc(-c4ccc(F)cc4)c(-c4nc(C(=O)NC(C)C)cs4)o3)CC2)c1`: not above 1000 nM; `COc1ccc2cc(C(C)C(=O)NCc3nc(-c4ccc(F)cc4)c(-c4nc(C(=O)NC(C)C)cs4)o3)ccc2c1` (centres undefined): not above 1000 nM.
As for `CC(C)NC(=O)c1csc(-c2oc(CNC(=O)c3cc(Cl)c(O)c(Cl)c3)nc2-c2ccc(F)cc2)n1`, the IC50 is not above 1000 nM.
To `CC(C)NC(=O)c1csc(-c2c(-c3ccc(F)cc3)noc2CNC(=O)c2cccc3ccccc23)n1` belongs not above 1000 nM; to `CC(C)NC(=O)c1csc(-c2oc(CN3CCN(C(=O)c4ccccc4-c4ccccc4)CC3)nc2-c2ccc(F)cc2)n1`, not above 1000 nM.
Next, `COc1ccc(CNC(=O)c2csc(-c3sc(C)nc3-c3ccc(F)cc3)n2)cc1OC`: not above 1000 nM; `CC(C)NC(=O)n1ccc(-c2c(-c3ccc(F)cc3)noc2CN2CCOCC2)n1`: not above 1000 nM; `CC(C)NC(=O)c1csc(-c2oc(CN3CCN(C(=O)c4ccc(-c5ccc(O)cc5)cc4)CC3)nc2-c2ccc(F)cc2)n1`: not above 1000 nM.
As for `CC(C)NC(=O)c1csc(-c2oc(CNC(=O)c3ccc4cccc(O)c4n3)nc2-c2ccc(F)cc2)n1`, the concentration for half-maximal inhibition (IC50) was not above 1000 nM.
Next, `CC(C)NC(=O)c1csc(-c2oc(CNC(=O)c3ccccc3C(F)(F)F)nc2-c2ccc(F)cc2)n1`: not above 1000 nM.
Next, `CC(=O)c1ccccc1C(=O)N1CCN(Cc2nc(-c3ccc(F)cc3)c(-c3nc(C(=O)NC(C)C)cs3)o2)CC1`: not above 1000 nM; `CC(C)NC(=O)c1csc(-c2oc(CNC(=O)CC3=CC(Cl)=C(O)OC3)nc2-c2ccc(F)cc2)n1`: not above 1000 nM; `CC(C)NC(=O)c1csc(-c2oc(CN3CCN(C(=O)c4cc(F)c(F)cc4[N+](=O)[O-])CC3)nc2-c2ccc(F)cc2)n1`: not above 1000 nM.
Next, `Cc1nc(-c2ccc(F)cc2)c(-c2nc(C(=O)NCCCNC(=O)OC(C)(C)C)cs2)s1`: not above 1000 nM.
With `Cc1nc(-c2ccc(F)cc2)c(-c2nc(C(=O)NCc3ccccc3)cs2)s1`, the IC50 was not above 1000 nM.
Next, `CC1=NN(c2ccc(C(=O)NCc3nc(-c4ccc(F)cc4)c(-c4nc(C(=O)NC(C)C)cs4)o3)cc2)C(=O)C1`: not above 1000 nM; `CC(C)NC(=O)c1csc(-c2c(-c3ccc(F)cc3)n[nH]c2C2CCN(C(=O)c3cccnc3Cl)CC2)n1`: not above 1000 nM; `Cc1nc(-c2ccc(F)cc2)c(-c2nc(C(=O)NC(C)C)cs2)[nH]1`: not above 1000 nM.
Next, `CC(C)NC(=O)c1csc(-c2oc(CNC(=O)c3cc4ccccc4s3)nc2-c2ccc(F)cc2)n1`: not above 1000 nM; `CC(C)NC(=O)c1csc(-c2oc(CN3CCN(C(=O)c4ccc(N(C)C=O)cc4)CC3)nc2-c2ccc(F)cc2)n1`: not above 1000 nM; `CC(C)NC(=O)c1csc(-c2oc(CN3CCN(C(=O)C4CCc5ccccc54)CC3)nc2-c2ccc(F)cc2)n1` (centres undefined): not above 1000 nM.
To `Cc1nc(-c2ccc(F)cc2)c(-c2nc(C(=O)NCCc3ccccc3Cl)cs2)s1` belongs not above 1000 nM.
Compound `Cc1nc(-c2ccc(F)cc2)c(-c2nc(C(=O)NC3CCC3)cs2)s1` showed a 50% inhibitory concentration (IC50) not above 1000 nM.
Compound `CC(C)NC(=O)c1csc(-c2oc(CN3CCOCC3)nc2-c2ccc(F)cc2)n1` gave an IC50 not above 1000 nM.
To `CC(C)NC(=O)c1csc(-c2oc(CNC(C)CO)nc2-c2ccc(F)cc2)n1` (centres undefined) belongs not above 1000 nM; to `COc1cccc(OC)c1C(=O)N1CCN(Cc2nc(-c3ccc(F)cc3)c(-c3nc(C(=O)NC(C)C)cs3)o2)CC1`, not above 1000 nM; to `CC(C)NC(=O)c1csc(-c2oc(CNC(=O)c3ccc(Cl)cc3[N+](=O)[O-])nc2-c2ccc(F)cc2)n1`, not above 1000 nM.
As to `Cc1nc(-c2ccc(F)cc2)c(-c2nc(C(=O)NCCC(C)C)cs2)s1`, the IC50 is not above 1000 nM.
Next, `CC(C)NC(=O)c1csc(-c2c(-c3ccc(F)cc3)noc2CNC(=O)C(O)CCl)n1` (centres undefined): not above 1000 nM; `CC(C)NC(=O)c1csc(-c2oc(CN3CCN(C(=O)C(Cl)(Cl)Cl)CC3)nc2-c2ccc(F)cc2)n1`: not above 1000 nM; `CC(C)NC(=O)c1csc(-c2c(-c3ccc(F)cc3)noc2CNC(=O)CC#N)n1`: not above 1000 nM.
To `CC(C)NC(=O)c1csc(-c2oc(CN3CCN(C(=O)Cc4ccccc4O)CC3)nc2-c2ccc(F)cc2)n1` belongs not above 1000 nM; to `CC(C)CC(NC(=O)OC(C)(C)C)C(=O)N1CCC(c2[nH]nc(-c3ccc(F)cc3)c2-c2nc(C(=O)NC(C)C)cs2)CC1` (centres undefined), not above 1000 nM; to `Cc1nc(-c2ccc(F)cc2)c(-c2nc(C(=O)NCc3ccc(F)c(Cl)c3)cs2)s1`, not above 1000 nM.
To `CC(C)NC(=O)c1csc(-c2c(-c3ccc(F)cc3)n[nH]c2C2CCN(C(=O)Cc3ccccc3O)CC2)n1` belongs not above 1000 nM.
Take `Cc1cccc(CNC(=O)c2csc(-c3sc(C)nc3-c3ccc(F)cc3)n2)c1`: the IC50 is not above 1000 nM.
In the case of `Cc1nc(-c2ccc(F)cc2)c(-c2nc(C(=O)NC3CCCCCC3)cs2)s1`, the concentration for half-maximal inhibition (IC50) was not above 1000 nM.
`COc1cc(OC)c(C(=O)N2CCN(Cc3nc(-c4ccc(F)cc4)c(-c4nc(C(=O)NC(C)C)cs4)o3)CC2)c(OC)c1` gave an IC50 not above 1000 nM.
Next, `Cc1nc(-c2ccc(F)cc2)c(-c2nc(C(=O)NCCCCO)cs2)s1`: not above 1000 nM.
Next, `CC(C)NC(=O)c1csc(-c2oc(CNC(=O)Cc3ccc(O)c(F)c3)nc2-c2ccc(F)cc2)n1`: not above 1000 nM.
To `Cc1nc(-c2ccc(F)cc2)c(-c2nc(C(=O)NCc3ccc(Cl)cc3)cs2)s1` belongs not above 1000 nM; to `CCCN(C)Cc1onc(-c2ccc(F)cc2)c1-c1nc(C(=O)NC(C)C)cs1`, not above 1000 nM; to `CC(C)NC(=O)c1csc(-c2oc(CN3CCN(C(=O)C(F)(F)F)CC3)nc2-c2ccc(F)cc2)n1`, not above 1000 nM.
`CC(C)NC(=O)c1csc(-c2oc(CNC(=O)c3cncc(Br)c3)nc2-c2ccc(F)cc2)n1`: the half-inhibitory concentration (IC50) is not above 1000 nM.
To `CC(C)NC(=O)c1csc(-c2c(-c3ccc(F)cc3)n[nH]c2C2CCN(C(=O)c3ccccc3C=O)CC2)n1` belongs not above 1000 nM; to `Cc1nc(-c2ccc(F)cc2)c(-c2nc(C(=O)NCCCN3CCOCC3)cs2)s1`, not above 1000 nM.
Regarding `CC(C)NC(=O)c1csc(-c2oc(CNC(=O)c3ccc(O)cc3O)nc2-c2ccc(F)cc2)n1`, the IC50 was not above 1000 nM.
To `CC(C)NC(=O)c1csc(-c2oc(CN3CCN(C(=O)c4cc(O)c(O)c(O)c4)CC3)nc2-c2ccc(F)cc2)n1` belongs not above 1000 nM; to `CC(C)NC(=O)c1csc(-c2c(-c3ccc(F)cc3)n[nH]c2C2CCN(C(=O)c3ccc(C(C)(C)C)cc3)CC2)n1`, not above 1000 nM.
In the case of `Cc1nc(-c2ccc(F)cc2)c(-c2nc(C(=O)NCc3ccc(F)cc3)cs2)s1`, the IC50 was not above 1000 nM.
On to `CC(=O)NCc1nc(-c2ccc(F)cc2)c(-c2nc(C(=O)NC(C)C)cs2)[nH]1`, for which the concentration for half-maximal inhibition (IC50) is not above 1000 nM.
To `CC(C)NC(=O)c1csc(-c2c(-c3ccc(F)cc3)n[nH]c2C2CCNCC2)n1` belongs not above 1000 nM; to `C#CCNC(=O)c1csc(-c2c(-c3ccc(F)cc3)n[nH]c2C)n1`, not above 1000 nM.

As a reminder, the IC50 is the midpoint of a concentration-inhibition curve. Low values mean greater potency, high ones weaker potency.
